Results reported in ChEMBL document CHEMBL1148635, “Discovery, structure-activity relationship, and pharmacological evaluation of (5-substituted-pyrrolidinyl-2-carbonyl)-2-cyanopyrrolidines as potent dipeptidyl peptidase IV inhibitors” (J Med Chem, 2006).

Assays:
[1] = Half life in phosphate buffer at pH 7.4 at 37 degreeC; assay type: ADME
[2] = Plasma clearance in Sprague-Dawley rat at 5 mg/kg, iv; assay type: ADME, organism-based; parameters: dose 5 mg/kg, route intravenous
[3] = Volume of distribution in Sprague-Dawley rat at 5 mg/kg; assay type: ADME, organism-based; parameters: dose 5 mg/kg; details: in vivo, read-out: Vdss
[4] = Cmax in Sprague-Dawley rat at 5 mg/kg, po; assay type: ADME, organism-based; parameters: dose 5 mg/kg, route oral; details: in vivo
[5] = Half life in Sprague-Dawley rat at 5 mg/kg, po; assay type: ADME, organism-based; parameters: dose 5 mg/kg, route oral; details: in vivo
[6] = test system: Rattus norvegicus; assay: AUC in Sprague-Dawley rat at 5 mg/kg, po; assay type: ADME, organism-based, Plasma; parameters: dose 5 mg/kg, route oral; details: in vivo
[7] = Oral bioavailability in Sprague-Dawley rat at 5 mg/kg; assay type: ADME, organism-based; details: in vivo
[8] = target: Dipeptidyl peptidase 2 (Homo sapiens, UniProt Q9UHL4); assay: Inhibition of DPP7 by tight-binding assay
[9] = target: T1, Prolyl endopeptidase (Homo sapiens, UniProt P48147); assay: Inhibition of POP by tight-binding assay
T1 sequence (P48147 whole entry): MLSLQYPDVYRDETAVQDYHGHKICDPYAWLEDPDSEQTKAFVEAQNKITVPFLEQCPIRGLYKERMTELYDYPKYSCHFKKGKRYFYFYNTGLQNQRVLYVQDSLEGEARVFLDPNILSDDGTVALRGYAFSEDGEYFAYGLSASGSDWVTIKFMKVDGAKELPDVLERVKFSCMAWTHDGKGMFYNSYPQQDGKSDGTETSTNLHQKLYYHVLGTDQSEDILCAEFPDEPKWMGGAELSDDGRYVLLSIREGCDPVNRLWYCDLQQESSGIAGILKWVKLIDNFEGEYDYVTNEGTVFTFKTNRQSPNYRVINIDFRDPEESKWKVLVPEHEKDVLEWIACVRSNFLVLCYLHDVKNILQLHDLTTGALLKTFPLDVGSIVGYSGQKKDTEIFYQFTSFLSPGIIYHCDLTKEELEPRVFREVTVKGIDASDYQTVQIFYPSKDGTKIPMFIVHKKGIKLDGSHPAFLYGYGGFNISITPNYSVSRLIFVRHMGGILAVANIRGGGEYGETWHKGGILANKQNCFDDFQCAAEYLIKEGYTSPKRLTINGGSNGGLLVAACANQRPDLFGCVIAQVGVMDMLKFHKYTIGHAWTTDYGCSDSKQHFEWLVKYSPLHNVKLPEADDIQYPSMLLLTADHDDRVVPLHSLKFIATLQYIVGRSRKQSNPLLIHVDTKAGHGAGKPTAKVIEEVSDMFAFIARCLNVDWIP

[10] = test system: Rattus norvegicus; assay: Lowering of blood glucose level in ZDF rat at 0.1 mg/kg, po by oral glucose tolerance test; assay type: functional
[11] = test system: Rattus norvegicus; assay: Lowering of blood glucose level in ZDF rat at 1 mg/kg, po by oral glucose tolerance test; assay type: functional
[12] = test system: Rattus norvegicus; assay: Lowering of blood glucose level in ZDF rat at 3 mg/kg, po by oral glucose tolerance test; assay type: functional
[13] = target: T2, Dipeptidyl peptidase 4 (Homo sapiens, UniProt P27487); assay: Inhibition of human recombinant DPP4
T2 sequence (P27487 whole entry): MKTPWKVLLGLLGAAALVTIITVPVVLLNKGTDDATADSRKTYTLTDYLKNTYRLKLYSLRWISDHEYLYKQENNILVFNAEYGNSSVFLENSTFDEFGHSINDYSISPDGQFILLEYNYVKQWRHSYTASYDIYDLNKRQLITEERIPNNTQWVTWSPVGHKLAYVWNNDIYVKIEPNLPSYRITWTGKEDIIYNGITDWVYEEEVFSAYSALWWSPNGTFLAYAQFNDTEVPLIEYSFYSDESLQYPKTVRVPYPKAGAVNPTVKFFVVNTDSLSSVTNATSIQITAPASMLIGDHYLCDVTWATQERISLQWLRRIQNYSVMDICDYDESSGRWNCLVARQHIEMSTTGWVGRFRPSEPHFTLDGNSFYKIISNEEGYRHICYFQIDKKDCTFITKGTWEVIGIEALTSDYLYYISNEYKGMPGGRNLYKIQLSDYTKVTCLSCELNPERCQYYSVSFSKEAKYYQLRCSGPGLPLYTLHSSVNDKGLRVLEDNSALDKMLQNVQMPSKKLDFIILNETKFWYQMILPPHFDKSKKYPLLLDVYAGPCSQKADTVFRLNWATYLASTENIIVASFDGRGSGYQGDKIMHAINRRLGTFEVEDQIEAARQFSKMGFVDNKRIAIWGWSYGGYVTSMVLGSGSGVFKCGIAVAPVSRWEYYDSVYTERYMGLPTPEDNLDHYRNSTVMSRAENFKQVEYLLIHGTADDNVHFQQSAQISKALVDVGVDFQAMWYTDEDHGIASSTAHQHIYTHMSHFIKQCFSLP

[14] = target: T2, Dipeptidyl peptidase 4; assay: Inhibition of human recombinant DPP4 by tight-binding assay
[15] = target: T2, Dipeptidyl peptidase 4; assay: Inhibition of human recombinant DPP4 by tight-binding assay in presence of 10% rat plasma; assay type: cell-free

half-life [1] [h]	clearance [2] [mL/min/kg]	Vd [3] [L/kg]	Cmax [4] [ng/mL]	half-life [5] [h]	AUC [6] [ng·h/mL]	bioavailability [7] [%]	SMILES	further results
10.8							N#C[C@@H]1CCCN1C(=O)[C@@H]1CC[C@H](COc2ccc3ccccc3c2)N1	
> 100	4.83	0.35	146	6.9	1280	7	N#C[C@@H]1CCCN1C(=O)[C@@H]1CC[C@H](COc2cc(C(=O)O)ccc2Cl)N1 (mixture of isomers)	Ki [8]: > 3 µM
41.2	85	1.14	25.2	1.3	28	3	CC(C)(C)c1ccccc1OC[C@H]1CC[C@@H](C(=O)N2CCC[C@H]2C#N)N1	
1.3							N#C[C@@H]1CCCN1C(=O)[C@@H]1CCCN1	
6.5	74.8	13.5	752	1.1	652	58	C[C@H]1CC[C@@H](C(=O)N2CCC[C@H]2C#N)N1	
16.4							CC[C@H]1CC[C@@H](C(=O)N2CCC[C@H]2C#N)N1	
							N#C[C@@H]1CCCN1C(=O)[C@@H]1CC[C@H](COc2cc(C(=O)O)c[n+]([O-])c2Cl)N1	Ki [9]: 1.53 µM; Ki [8]: > 3 µM
	7	0.73	2470	3.5	4110	34	CC(C)c1cc(C(=O)O)ccc1OC[C@H]1CC[C@@H](C(=O)N2CCC[C@H]2C#N)N1	Activity [10]: 3%; Activity [11]: 17%; Activity [12]: 30%; Ki [8]: > 3 µM
	3.83	0.22	805	3.6	2990	13.5	N#C[C@@H]1CCCN1C(=O)[C@@H]1CC[C@H](COc2cc([N+](=O)[O-])c(Cl)cc2Cl)N1	
16.7	10.5	0.2	4540	1.5	3140	39	N#Cc1ccc(OC[C@H]2CC[C@@H](C(=O)N3CCC[C@H]3C#N)N2)c(Cl)c1	
19.8							N#C[C@@H]1CCCN1C(=O)[C@@H]1CC[C@H](COc2ccc(C(=O)O)cc2Cl)N1	Ki [9]: 1.74 µM
7.8							N#C[C@@H]1CCCN1C(=O)[C@@H]1CC[C@H](COc2ccc(Br)cc2)N1	
	14	0.3	3730	2.2	2920	40	CS(=O)(=O)c1ccc(OC[C@H]2CC[C@@H](C(=O)N3CCC[C@H]3C#N)N2)c(Br)c1	
							N#C[C@@H]1CCCN1C(=O)[C@@H]1CC[C@H](COc2ccccc2Cl)N1	Ki [9]: 2.76 µM
> 100							CC(C)[C@H]1CC[C@@H](C(=O)N2CCC[C@H]2C#N)N1 (mixture of isomers)	
65.4	5.33	1	5580	4.2	9630	63	CC(C)(C)c1cc(C(=O)O)ccc1OC[C@H]1CC[C@@H](C(=O)N2CCC[C@H]2C#N)N1	
							N#C[C@@H]1CCCN1C(=O)[C@@H]1CC[C@H](COc2ccccc2Cc2ccccc2)N1	Ki [13]: > 3 µM; Ki [14]: Not Active; Ki [15]: Not Active

SMILES	half-life [1] [h]	clearance [2] [mL/min/kg]	Vd [3] [L/kg]	Cmax [4] [ng/mL]	half-life [5] [h]	AUC [6] [ng·h/mL]	bioavailability [7] [%]	further results
N#C[C@@H]1CCCN1C(=O)[C@@H]1CC[C@H](COc2cc(C(=O)O)cnc2Cl)N1		16	0.35	29	1.2	87	2	Ki [9]: 0.666 µM; Ki [8]: > 3 µM
